Converted amounts (≈) assume the structure as drawn.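 All cell lines were grown in 96-well plates and treated with compound for 48 hours. Here, GI50 denotes the concentration required for 50% inhibition of growth. At the TGI there is no net growth.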
Legend:
Test in all cases: DTP human tumour cell line panel, 48 h
[1] = system: K-562 leukemia
[2] = system: KM12 colon
[3] = system: OVCAR-3 ovarian
[4] = system: SK-OV-3 ovarian
[5] = system: OVCAR-8 ovarian
[6] = system: MALME-3M melanoma
[7] = system: SK-MEL-2 melanoma
[8] = system: COLO 205 colon
[9] = system: UO-31 renal
[10] = system: NCI/ADR-RES ovarian

Structure (SMILES)	TGI [1]	TGI [2]	TGI [3]	TGI [4]	TGI [5] [µM]	TGI [6] [µM]	TGI [7] [µM]	TGI [8]	TGI [9]	TGI [10] [µM]	GI50 [1]	GI50 [2] [µg/mL]	GI50 [3]	GI50 [4]	GI50 [8]	GI50 [9]	GI50 [7] [nM]	GI50 [10] [µM]
COc1ccc(N2C(=O)[C@@H]3[C@@H]4CC(C)CC[C@@H]4c4c([nH]c5ccccc45)[C@@H]3C2=O)cc1 (some centres not stated)	> 100 µM	> 100 µM	37.2 µM	22.8 µM	40.1	> 100	28.5	> 55.1 µM	> 55.9 µM									
COc1ccc2cc(CNCCCCCCNC(=O)Nc3cccc4ccccc34)ccc2c1	> 100 µM	> 100 µM	> 100 µM	> 100 µM	> 100	> 100	> 100	> 100 µM										
CC(NC(CC12CC3CC(CC(C3)C1)C2)C(N)=O)c1ccccc1 (configuration not stated)	41.4 µM		26.6 µM	> 100 µM	64.4	34.3		28.7 µM	51.4 µM	48								
N#CCCN(C(=O)Nc1ccc(NC(=O)N(CCC#N)c2ccccc2)cc1)c1ccccc1	> 100 µM	> 100 µM	> 100 µM	> 100 µM	> 100	> 100	> 100	> 100 µM	> 100 µM	> 100								
CC(=O)CC(O)(C(F)(F)Cl)C(F)(Cl)Cl (configuration not stated)	> 10 µM	> 10 µM	> 10 µM	> 10 µM	> 10	> 10	> 10	> 10 µM	> 10 µM	> 10								
O=C(OC[C@H]1C[C@H]2C(=O)OCCC[C@H]2O1)c1ccccc1	> 100 µM	> 100 µM	> 100 µM	> 100 µM	> 100		> 100	> 100 µM	> 100 µM	> 100								
NC1CC(=O)c2c(I)sc(I)c21 (configuration not stated)	> 100 µM	32.9 µM	38.7 µM	> 100 µM	> 55.4	29.8	36.2	> 63 µM	35.5 µM	> 61.7								
CCOC(=O)/C(C(=O)c1ccc[nH]1)=C1/CCCN1C	> 100 µM	> 100 µM	> 100 µM	> 100 µM	> 100	> 100	> 100	> 100 µM	> 100 µM	> 100								
CCn1c(=O)c2nc(SC)sc2n(-c2ccccc2)c1=S	55.1 µM	> 100 µM	> 100 µM	> 100 µM	> 100	> 100	> 100		35.4 µM	> 100								
CC1(C)OCC(/C=C\C(O)CC2(C)OCCO2)CO1 (configuration not stated)	> 100 µM	> 100 µM	> 100 µM	> 100 µM	> 100		> 100	> 100 µM	> 100 µM	> 100								
COC(=O)[C@@H]1CN(C(=O)Cc2ccccc2)C(=O)N1	> 100 µM	> 100 µM	> 100 µM		> 100	> 100		> 100 µM	> 100 µM	> 100								
O=C(O)COc1c(Cl)cc(Cl)c(C(c2c(Cl)cc(Cl)c(OCC(=O)O)c2Cl)C(Cl)(Cl)Cl)c1Cl	> 100 µM	> 100 µM		47.2 µM	> 100	76.7	42.2	> 100 µM	55.2 µM	> 100								
C#C[C@]1(O)CC[C@H]2[C@@H]3CCC4=C/C(=N/OC(=O)c5cccc6cc7ccccc7nc56)CC[C@@H]4[C@H]3CC[C@@]21CC	> 100 µM	> 100 µM	> 100 µM	> 100 µM	> 100		> 100	> 100 µM		> 100								
O=C1OCc2nc3c(c(-c4ccccc4C(F)(F)F)c21)C(=O)OC3	> 100 µM	> 100 µM	> 100 µM	> 100 µM	> 100	> 100	> 100	> 100 µM	> 100 µM									
COc1cccc(C2c3cc4c(cc3OC(NNS(=O)(=O)c3ccc(C)cc3)C2C)OCO4)c1O (configuration not stated)	39.4 µM	79.2 µM	57.5 µM	> 100 µM	> 100	64.4	53	34.2 µM	> 100 µM									
CC(=O)N(C(=O)CC(=O)N1N=C(C)C(N=Nc2cccc([N+](=O)[O-])c2)C1=O)c1ccc(Cl)cc1 (configuration not stated)	> 10 µM	> 10 µM	> 10 µM	> 10 µM	> 10	> 10		> 10 µM		> 10								
O=C1C=C2SC3C[C@@]24CC1(O)[N+]1=c2c4c(c(O)c4c2=C(C=N4)CC1)N3	2.72 µM	2.91 µM	0.515 µM	3.78 µM	3.63		2.77	0.332 µM	3.48 µM	2.78								
CCCNC(=O)c1cc(OC)c(OC)cc1NC(=O)C12CC3CC(CC(C3)C1)C2	> 100 µM	32 µM	35.4 µM		66.6	32.9	29.5	56.6 µM	30.1 µM	48.3								
O=c1[nH]nc(-c2cccc([N+](=O)[O-])c2)[nH]1	> 100 µM	> 100 µM	> 100 µM		> 100	> 100	> 100	> 100 µM	> 100 µM	> 100								
COC1=CC(=O)[C@@]2(C)C(C)[C@H](c3ccccc3)[C@H]2C1=O (some centres not stated)	> 100 µM	> 100 µM	> 100 µM	> 100 µM	> 100	> 100	> 100	> 100 µM	> 100 µM									
CCOC(=O)c1c(NS(=O)(=O)c2ccccc2)sc2c1CCCC2	> 100 µM	> 100 µM	82.3 µM		> 100		> 100	> 100 µM	> 100 µM	> 100								
CCC(CCCC[C@H]1CC[C@@H]2CC(=O)C[C@H]12)OC (some centres not stated)	> 100 µM	> 100 µM	> 100 µM	> 100 µM	> 100	> 100	> 100	> 100 µM		> 100								
Clc1ccc(Cc2nc3cc4ccccc4cc3[nH]2)cc1Cl	83 µM	45.9 µM	61 µM		49.8	39.4	34.4	> 100 µM	28.5 µM	96.4								

Structure (SMILES)	TGI [1]	TGI [2]	TGI [3]	TGI [4]	TGI [5] [µM]	TGI [6] [µM]	TGI [7] [µM]	TGI [8]	TGI [9]	TGI [10] [µM]	GI50 [1]	GI50 [2] [µg/mL]	GI50 [3]	GI50 [4]	GI50 [8]	GI50 [9]	GI50 [7] [nM]	GI50 [10] [µM]
Cc1cc2nc3c(N)nn(CCCN(C)C)c3nc2cc1C		> 100 µM	> 100 µM	> 100 µM	> 100			> 100 µM	> 100 µM	> 100								
COc1ccc(C(CC(=O)c2cccs2)C(=O)c2ccc3c(c2)OCO3)cc1 (configuration not stated)	> 100 µM	> 100 µM		> 100 µM	> 100	> 100		> 100 µM		> 100								
Cc1c2ccncc2c(C)c2c1[nH]c1ccc(O)cc12	0.675 µg/mL	0.271 µg/mL	0.435 µg/mL	0.261 µg/mL				0.455 µg/mL	1.09 µg/mL		0.0182 µg/mL	0.0458 (≈ 0.174 µM)	0.0909 µg/mL	0.0393 µg/mL	0.0699 µg/mL	0.073 µg/mL		
O=[N+]([O-])c1ccc(CSC2=C(c3ccc(Cl)cc3)S/C(=C3\SC(SCc4ccc([N+](=O)[O-])cc4)=C(c4ccc(Cl)cc4)S3)S2)cc1	> 100 µM	> 100 µM	> 100 µM	> 100 µM	> 100	> 100	> 100	> 100 µM		> 100								
O=C(CC(C(=O)c1ccsc1)c1cccs1)c1cccs1 (configuration not stated)	> 100 µM		> 100 µM	> 100 µM	> 100	> 100	> 100	> 100 µM	92.7 µM									
C=CC[PH+](c1ccccc1)c1ccccc1.C=CC[PH+](c1ccccc1)c1ccccc1.[Pt+2].[S-]c1nc2ccccc2[nH]1.[S-]c1nc2ccccc2[nH]1	> 100 µM		5.16 µM	27.4 µM			5.36	6.56 µM	36.5 µM	> 100	620 nM		1900 nM	3.16 µM	2020 nM	2580 nM	2250	47.1
CN1N=C(c2ccncc2)OC1c1ccc(C(F)(F)F)cc1 (configuration not stated)	> 100 µM	> 100 µM	> 100 µM	> 100 µM	> 100		> 100	> 100 µM	> 100 µM	> 100								
O=C(O)c1ccccc1Sc1ccc(C=C2NC(=S)N(c3ccccc3)C2=O)s1	> 100 µM	> 100 µM	> 100 µM		> 100	> 100	> 100	> 100 µM	> 100 µM	> 100								
COC(=O)c1sc2c(c1C(=O)OC)C(=Nc1ccc(OC)cc1)SC2=Nc1ccc(OC)cc1		3.03 µM	1.32 µM	3.37 µM	2.32	3.65	1.48	1.31 µM	2.11 µM	3.47								
C=CCSC1=N/C(=C\c2ccc(C)cc2)C(=O)N1CC=C	44.9 µM	69.1 µM	> 100 µM	> 100 µM	> 100		61	42 µM	84.4 µM	> 100								
COC(OC)c1cccc2c1C(=O)CCC1(CC2)OCCCCO1	> 100 µM	> 100 µM	> 100 µM	> 100 µM	> 100	> 100	> 100	> 100 µM	> 100 µM									
Cc1c(CCCl)c(Cl)n2c(nc3ccccc32)c1C#N	3.34 µM	2.54 µM	2.82 µM	> 56.4 µM	2.38	2.62	2.78	2.47 µM	2.56 µM									
COc1cc2c(cc1C)NC(=O)/C2=C/c1c(Cl)[nH]c2ccccc12	> 100 µM	16.9 µM	6.34 µM	7.71 µM	26.4	15.3	8.56	13.1 µM	25.8 µM									
CCN(CC)C(=O)Cc1[nH][nH]c(=O)c1C(=O)N(CC)CC	> 100 µM	> 100 µM	> 100 µM	> 100 µM	> 100	> 100	> 100	> 100 µM	> 100 µM									
CN1C/C(=C\c2ccccc2)C2=NN(C(N)=S)[C@H](c3ccccc3)[C@@H]2C1	> 100 µM	> 100 µM	> 100 µM	> 100 µM		> 100	> 100	> 100 µM	> 100 µM									
O=S(c1ccc(O)cc1)c1ccc(O)cc1	> 100 µM	> 100 µM	> 100 µM	> 100 µM		> 100	> 100	> 100 µM	> 100 µM									
CC(=O)OC1COC(N2C(=O)C(=O)c3ccccc32)C(OC(C)=O)C1OC(C)=O (configuration not stated)	> 100 µM	> 100 µM	> 100 µM	> 100 µM	> 100	> 100	> 100	> 100 µM	> 100 µM									
CCOC(=O)c1c(N2CCN(C)CC2)[nH]c(=O)c(C(c2c(Cl)cccc2Cl)c2c(O)c(C(=O)OCC)c(N3CCN(C)CC3)[nH]c2=O)c1O	86.8 µM	49.7 µM	87.1 µM		45	41.5	53.2	> 100 µM	39.1 µM	> 100								
COc1cc2c(c(O)c1OC)C(O)C1CCC(=O)N1C2c1ccc2c(c1)OCO2 (configuration not stated)	> 100 µM	> 100 µM	> 100 µM	> 100 µM	> 100	> 100		> 100 µM	> 100 µM	> 100								
CCCC(O)c1ccc2[nH]c3c(C)cc([N+](=O)[O-])c(C)c3c2c1 (configuration not stated)	> 100 µM	> 100 µM	> 100 µM		> 100	> 100	> 100	> 100 µM	> 100 µM									
Cc1cc2c3ccccc3n3c2c2c1OC1(C)CCC(C2C1)C3(C)C (configuration not stated)	> 25 µM	> 25 µM	> 25 µM	> 25 µM	> 25	> 25	> 25	> 25 µM	> 25 µM									
NC1=Nc2ncccc2C(=O)NN1	> 10 µM	> 10 µM	> 10 µM	> 10 µM	> 10	> 10	> 10		> 10 µM									

From PubChem BioAssay (NCI)
